Legend:
NMDA receptor [1] = test: NMDA receptor-mediated currents, whole cell patch recordings in dissociated hippocampal neurons; type: cell-based, rat; settings: for effect on NMDA receptor-mediated current: 30 uM NMDA
[2] = test system: non-NMDA receptor for kainate; test: kainate-mediated current in dissociated hippocampal neurons (control experiment); type: cell-based, rat; settings: 10 uM CNQX, 20 uM kainate
[3] = biological target: glycine binding site (NMDA receptor); test: 3-H-glycine binding to frontal cortex membranes; settings: 4 nM 3-H-glycine, washed guinea pig frontal cortex membranes, 30 min on ice; read-out: IC50 for displacement of glycine
non-NMDA receptors = settings: U.S. Pat. No. 4,812,458; cited from earlier work
NMDA receptor [4] = settings: cited from earlier work; for effect on responses produced by NMDA: literature reports (Honore et al., Blake et al., Fletcher, Dryer et al.)

| effect on kainate-mediated current ([2]; 1 uM glycine) | effect of glycine on suppression of kainate-mediated current ([2]; glycine 1000 uM) | IC50 [3] [µM] | Compound | effect on NMDA receptor-mediated current (NMDA receptor [1]; 10 uM CNQX, 1 uM glycine (FIG. 2A)) | effect on NMDA receptor-mediated current (NMDA receptor [1]; 10 uM CNQX, 100 uM glycine) | effect on NMDA receptor-mediated current (NMDA receptor [1]; 30 uM CNQX, 200 uM glycine, reversed by 500 uM NMDA (FIG. 2B)) | dependence of CNQX effects on membrane potential (NMDA receptor [1]; currents recorded at +40 mv and -40 mV) | glycine potentiation of NMDA receptor-mediated currents (NMDA receptor [1]; varying glycine, 10 uM or 30 uM CNQX (FIG. 1)) | effect on excitation of spinal cord neurons induced by stimulation of non-NMDA receptors (non-NMDA receptors) | effect on responses produced by NMDA (NMDA receptor [4]) | effect on NMDA concentration response curve (NMDA receptor [4]; Birch et al. 1988) | effect on maximal response to NMDA (NMDA receptor [4]; high antagonist concentrations, Birch et al. 1988) |
| --- | --- | --- | --- | --- | --- | --- | --- | --- | --- | --- | --- | --- |
| complete suppression | no effect on this suppression | 5.7 | N#Cc1cc2[nH]c(=O)c(=O)[nH]c2cc1[N+](=O)[O-] [CNQX, 6-cyano-7-nitroquinoxaline 2,3-dione] | suppresses the response | substantially no effect | relatively low suppression | not dependent on membrane potential | complete potentiation is not achieved | depress the excitation | little or no effect |  |  |
|  |  |  | O=c1[nH]c2cc([N+](=O)[O-])c([N+](=O)[O-])cc2[nH]c1=O [DNQX, 6,7-dinitro-quinoxaline-2,3-dione] |  |  |  |  |  | depress the excitation | little or no effect | shift to the right | decrease in maximal response |
